What was measured:
[1] = intraperitoneal injection of a few μg; cited from earlier work
[2] = system: rats; test: Intratracheal instillation of MALP-2 in rats, cells determined by bronchoalveolar lavage (BAL); details: 3 μg instilled into the trachea
Experimental: 1) 3 μg of MALP-2 (an S-(2,3-bisacyloxypropyl)-cysteine peptide) are instilled into the trachea of rats. At various times after treatment, cells from the lung lumen are determined by means of bronchoalveolar lavage (BAL).

[3] = system: rats; test: Repeated inhalation of MALP-2 by mask in rats; format: in vivo, rat; details: 30 μg inhaled by mask, six occasions at one-week intervals
Experimental: 2) With the aid of a mask, rats are made to inhale 30 μg doses of MALP-2 on six occasions at one-week intervals.

MALP-2: macrophage-activating lipopeptide (an S-(2,3-bisacyloxypropyl)-cysteine peptide) isolated from Mycoplasma fermentans
leukocyte infiltration [1]: has brought about leukocyte infiltration | adverse effect on the animals [2]: not detectable | duration of the increase in leukocyte number [2]: lasts for a few days | food consumption, bodyweight, activity and behaviour [2]: not noteworthy | number of leukocytes in the respiratory tracts and the alveolar space (BAL) ([2]; after a few hours): increase in the number of leukocytes | clinical condition of the animals [3]: clinically not noteworthy | lymphatic tissue in the bronchial mucosa [3]: increase in the lymphatic tissue
